Patent publication US20170044104A1, “NEW PESTICIDAL COMPOUNDS AND USES” (BAYER CROPSCIENCE AG, priority 2013, published 2017)

Legend:
Cooperia curticei = Cooperia curticei (COOPCU) larval mortality assay; conditions: 120 h, after 5 days, read-out: activity (percentage of larval mortality); for mortality at 20 ppm: application rate 20 ppm; for mortality at 4 ppm: application rate 4 ppm
Protocol: (§1) Solvent: dimethyl sulfoxide
(§2) To produce a suitable preparation of active compound, 10 mg of active compound are dissolved in 0.5 ml solvent, and the concentrate is diluted with “Ringer's solution” to the desired concentration.
Approximately 40 nematode larvae (Cooperia curticei) are transferred into a test tube containing the compound solution.
After 5 days percentage of larval mortality is recorded. 100% efficacy means all larvae are killed; 0% efficacy means no larvae are killed.

Haemonchus contortus = Haemonchus contortus (HAEMCO) larval mortality assay; conditions: 120 h; for mortality at 20 ppm: application rate 20 ppm; for mortality at 20 ppm / mortality at 4 ppm: after 5 days, read-out: activity (percentage of larval mortality); for Emax at 0.8 ppm / Emax at 4 ppm / Emax at 20 ppm: comparative test, 5 dat, read-out: % Efficacy; for mortality at 4 ppm: application rate 4 ppm
Protocol: as §1, §2
Approximately 40 larvae of the red stomach worm (Haemonchus contortus) are transferred into a test tube containing compound solution.
After 5 days percentage of larval mortality are recorded. 100% efficacy means all larvae are killed, 0% efficacy means no larvae are killed.

Meloidogyne incognita = Meloidogyne incognita (MELGIN) gall formation assay; assay type: in vivo; conditions: 336 h, application rate 20 ppm, after 14 days, salad seedlings, read-out: nematicidal activity (percentage of gall formation)
Protocol: Solvent: 125.0 parts by weight of acetone
To produce a suitable preparation of active compound, 1 part by weight of active compound is mixed with the stated amount of solvent, and the concentrate is diluted with water to the desired concentration.
Vessels are filled with sand, a solution of the active ingredient, a suspension containing eggs and larvae of the southern root-knot nematode (Meloidogyne incognita) and salad seeds. The salad seeds germinate and the seedlings grow. Galls develop in the roots.
After 14 days the nematicidal activity is determined on the basis of the percentage of gall formation. 100% means no galls were found and 0% means the number of galls found on the roots of the treated plants was equal to that in untreated control plants.

Row | SMILES | mortality at 20 ppm (Cooperia curticei) | mortality at 20 ppm (Haemonchus contortus) | further results
1 | O=C(NCCc1ccc(-c2ccncc2)cc1Cl)c1ccccc1C(F)(F)F [Example 1-36] | 80% |  | 
2 | Cc1nc(Cl)ccc1-c1cccc(CCNC(=O)c2ccccc2C(F)(F)F)c1 [Example 1-5] |  | 90% | 
3 | CN(C)c1ncc(-c2ccc(C(F)(F)CNC(=O)c3ccccc3C(F)(F)F)c(F)c2)cn1 [Example 1-146] | 100% |  | 
4 | O=C(NCCc1ccc(-c2ccncc2)cc1)c1ccccc1C(F)(F)F [Example 1-13] | 80% |  | 
5 | O=C(NCC(F)(F)c1ccc(-c2ccc(C(F)(F)F)nc2)cc1F)c1ccccc1C(F)(F)F [Example 1-105] | 90% |  | 
6 | O=C(NCCc1ccc(-c2ccc(F)nc2)cc1)c1ccccc1C(F)(F)F [Example 1-62] | 100% | 100% | Emax at 0.8 ppm (Haemonchus contortus): 80%; Emax at 4 ppm (Haemonchus contortus): 90%; Emax at 20 ppm (Haemonchus contortus): 100%
7 | O=C(NCC(F)(F)c1ccc(-c2ccc(Cl)nc2)cc1F)c1ccccc1C(F)(F)F [Example 1-114] | 100% | 80% | 
8 | O=C(NCCc1ccc(-c2ccoc2)cc1Cl)c1ccccc1C(F)(F)F [Example 1-35] | 100% | 100% | Emax at 0.8 ppm (Haemonchus contortus): 80%; Emax at 4 ppm (Haemonchus contortus): 90%; Emax at 20 ppm (Haemonchus contortus): 100%
9 | O=C(NCC(F)(F)c1ccc(-c2ccc(Cl)nc2)cc1Cl)c1cccnc1C(F)(F)F [Example 1-67] |  | 90% | mortality at 4 ppm (Cooperia curticei): 90%
10 | CN(C)c1ccc(-c2ccc(C(F)(F)CNC(=O)c3ccccc3C(F)(F)F)c(C(F)(F)F)c2)cn1 [Example 1-125] | 80% |  | 
11 | O=C(NCCc1ccc(-c2cncc(F)c2)cc1)c1ccccc1C(F)(F)F [Example 1-14] | 100% | 90% | 
12 | O=C(NCC(F)c1ccc(-c2cccnc2Cl)cc1Cl)c1nccnc1C(F)(F)F (centres unmarked) [Example 1-79] | 100% | 100% | 
13 | O=C(NCCc1ccc(-c2cccc(Cl)n2)cc1Cl)c1ccccc1C(F)(F)F [Example 1-41] | 100% | 90% | 
14 | O=C(NCCc1ccc(-c2cccnc2)cc1)c1ccccc1C(F)(F)F [Example 1-57] | 100% | 80% | 
15 | CC(F)(CNC(=O)c1nccnc1C(F)(F)F)c1ccc(-c2cncc(F)c2)cc1Cl (centres unmarked) [Example 1-102] | 100% | 100% | 
16 | Cc1ncccc1-c1ccc(CCNC(=O)c2cccnc2C(F)(F)F)cc1 [Example 1-21] | 100% |  | 
17 | COc1ccc(-c2ccc(C(F)(F)CNC(=O)c3ccccc3C(F)(F)F)c(F)c2)cn1 [Example 1-110] | 100% | 90% | 
18 | O=C(NCCc1ccc(-c2cc(Cl)nc(Cl)c2)cc1Cl)c1ccccc1C(F)(F)F [Example 1-46] | 100% |  | 
19 | Cn1cc(-c2ccc(CCNC(=O)c3ccccc3C(F)(F)F)cc2)cn1 [Example 1-60] | 100% | 80% | 

Row | SMILES | mortality at 20 ppm (Cooperia curticei) | mortality at 20 ppm (Haemonchus contortus) | further results
20 | O=C(NCC(F)(F)c1ccc(-c2ccc(C(F)(F)F)nc2)cc1C(F)(F)F)c1ccccc1C(F)(F)F [Example 1-124] | 90% |  | mortality at 4 ppm (Haemonchus contortus): 90%
21 | O=C(NCCc1ccc(-c2ccc(Cl)nc2)cc1)c1ccccc1C(F)(F)F [Example 1-15] | 100% |  | mortality at 4 ppm (Haemonchus contortus): 90%
22 | O=C(NCCc1ccc(-c2ccc(C(F)(F)F)nc2)cc1)c1ccccc1C(F)(F)F [Example 1-12] | 100% | 90% | 
23 | CC(F)(CNC(=O)c1c(F)cccc1F)c1ccc(-c2cncc(F)c2)cc1Cl (centres unmarked) [Example 1-103] |  | 100% | 
24 | O=C(NCCc1ccc(-c2ccc(C(F)(F)F)nc2)cc1)c1cccnc1C(F)(F)F [Example 1-19] | 100% |  | pest or weed control at 20 ppm (Meloidogyne incognita): 90%
25 | O=C(NCCc1ccc(-c2ccc(OCC(F)(F)F)nc2)cc1)c1ccccc1C(F)(F)F [Example 1-58] | 100% | 80% | 
26 | O=C(NCCc1ccc(-c2ccnc(Cl)c2)cc1Cl)c1ccccc1C(F)(F)F [Example 1-65] | 90% |  | 
27 | O=C(NCCc1ccc(-c2ccnc(F)c2)cc1)c1ccccc1C(F)(F)F [Example 1-51] | 100% |  | 
28 | Cc1nc(C)c(-c2ccc(CCNC(=O)c3ccccc3C(F)(F)F)c(Cl)c2)s1 [Example 1-50] | 90% |  | 
29 | CC(F)(CNC(=O)c1ccccc1C(F)(F)F)c1ccc(-c2ccc(F)nc2)cc1Cl (centres unmarked) [Example 1-130, N-{2-[2-chloro-4-(6-fluoropyridin-3-yl)phenyl]-2-fluoropropyl}-2-(trifluoromethyl) benzamide] |  |  | pest or weed control at 20 ppm (Meloidogyne incognita): 100%
30 | O=C(NCCc1cccc(-c2cncc(F)c2)c1)c1ccccc1C(F)(F)F [Example 1-3] |  | 90% | 
31 | O=C(NCC(F)(F)c1ccc(-c2cncc(F)c2)cc1C(F)(F)F)c1ccccc1C(F)(F)F [Example 1-122] | 100% | 100% | 
32 | O=C(NCCc1ccc(-c2ccnc(F)c2)cc1)c1cccnc1C(F)(F)F [Example 1-27] | 80% | 80% | 
33 | CC(C)Oc1ccc(-c2ccc(CCNC(=O)c3ccccc3C(F)(F)F)c(Cl)c2)cn1 [Example 1-43] | 100% | 100% | Emax at 0.8 ppm (Haemonchus contortus): 100%; Emax at 4 ppm (Haemonchus contortus): 100%; Emax at 20 ppm (Haemonchus contortus): 100%
34 | O=C(NCC(F)(F)c1ccc(-c2ccc(F)nc2)cc1C(F)(F)F)c1cccnc1C(F)(F)F [Example 1-140] |  |  | pest or weed control at 20 ppm (Meloidogyne incognita): 90%
35 | Cc1occc1-c1ccc(CCNC(=O)c2ccccc2C(F)(F)F)cc1 [Example 1-59] | 100% |  | 
36 | O=C(NCCc1ccc(-c2ccnc(F)c2)cc1Cl)c1ccccc1C(F)(F)F [Example 1-34] | 100% |  | 
37 | Cc1cc(-c2ccc(F)nc2)ccc1C(F)(F)CNC(=O)c1ccccc1C(F)(F)F [Example 1-136] |  |  | pest or weed control at 20 ppm (Meloidogyne incognita): 90%
38 | O=C(NCCc1ccc(-c2ccoc2)cc1)c1ccccc1C(F)(F)F [Example 1-52] | 100% |  | 

Row | SMILES | mortality at 20 ppm (Cooperia curticei) | mortality at 20 ppm (Haemonchus contortus) | further results
39 | Cc1occc1-c1ccc(CCNC(=O)c2cccnc2C(F)(F)F)cc1 [Example 1-23] | 80% |  | 
40 | CC(F)(CNC(=O)c1cccnc1C(F)(F)F)c1ccc(-c2ccc(F)nc2)cc1Cl (centres unmarked) [Example 1-129] |  |  | pest or weed control at 20 ppm (Meloidogyne incognita): 100%
41 | CC(C)Oc1ccc(-c2ccc(C(F)(F)CNC(=O)c3ccccc3C(F)(F)F)c(Cl)c2)cn1 [Example 1-91] | 100% |  | 
42 | O=C(NCCc1ccc(-c2ccnc(Cl)c2)cc1)c1cccnc1C(F)(F)F [Example 1-26] | 90% |  | 
43 | O=C(NCC(F)c1ccc(-c2cncc(Cl)c2)cc1Cl)c1cccnc1C(F)(F)F (centres unmarked) [Example 1-83] | 100% | 100% | 
44 | Cc1cc(-c2ccc(CCNC(=O)c3ccccc3C(F)(F)F)cc2)ccn1 [Example 1-11] |  | 80% | 
45 | O=C(NCCc1ccc(-c2ccnc(Cl)c2)cc1)c1ccccc1C(F)(F)F [Example 1-64] | 100% | 80% | 
46 | COc1ccc(-c2ccc(C(F)(F)CNC(=O)c3ccccc3C(F)(F)F)c(C(F)(F)F)c2)cn1 [Example 1-127] | 100% | 100% | 
47 | O=C(NCCc1ccc(-c2cnccc2Cl)cc1Cl)c1ccccc1C(F)(F)F [Example 1-31] | 100% |  | 
48 | CN(C)c1ncc(-c2ccc(C(F)(F)CNC(=O)c3ccccc3C(F)(F)F)c(C(F)(F)F)c2)cn1 [Example 1-149] |  |  | mortality at 4 ppm (Cooperia curticei): 90%
49 | O=C(NCCc1ccc(-c2cccc(Cl)n2)cc1)c1ccccc1C(F)(F)F [Example 1-55] | 100% |  | 
50 | Cc1occc1-c1ccc(CCNC(=O)c2ccccc2C(F)(F)F)c(Cl)c1 [Example 1-40] | 100% | 100% | 
51 | O=C(NCCc1ccc(-c2ccc(OCC(F)(F)F)nc2)cc1Cl)c1ccccc1C(F)(F)F [Example 1-32] | 100% | 90% | 
52 | O=C(NCC(F)c1ccc(-c2ccc(C(F)(F)F)nc2)cc1Cl)c1nccnc1C(F)(F)F (centres unmarked) [Example 1-72] | 100% | 100% | 
53 | O=C(NCCc1ccc(-c2cccnc2Cl)cc1)c1ccccc1C(F)(F)F [Example 1-56] | 80% | 80% | 
54 | O=C(NCC(F)c1ccc(-c2ccc(C(F)(F)F)nc2)cc1Cl)c1cccnc1C(F)(F)F (centres unmarked) [Example 1-71] | 100% | 90% | 
55 | COc1cncc(-c2ccc(C(F)(F)CNC(=O)c3ccccc3C(F)(F)F)c(C(F)(F)F)c2)c1 [Example 1-121] | 80% | 80% | 
56 | O=C(NCCc1ccc(-c2ccc(C(F)(F)F)nc2)cc1Cl)c1ccccc1C(F)(F)F [Example 1-38] | 100% | 100% | Emax at 0.8 ppm (Haemonchus contortus): 100%; Emax at 4 ppm (Haemonchus contortus): 100%; Emax at 20 ppm (Haemonchus contortus): 100%
57 | O=C(NCCc1ccc(-c2ccc(OCC(F)(F)F)nc2)cc1)c1cccnc1C(F)(F)F [Example 1-18] | 100% |  | 
